Reference: patent US10525269B2, “Methods for improving heart function” (THE JOHNS HOPKINS UNIVERSITY, priority 2010, dated 2020)
Entries after “also recorded” stand apart in the source; their conditions may differ.

Key:
cAMP = assay: Membrane-localized cAMP FRET probe (ICUE3) in isolated myocytes; format: cell-based, dog; details: in presence of IBMX
Text: Adult myocytes were infected with an adenovirus expressing either the modified EPAC-based cAMP FRET sensor (ICUE3) (DiPilato et al. (1999) J Biol Chem. 274:22048-22052) or SR-localized PKA activity sensor SR-AKAR3 (Liu et al. (2011) Biochem Biophys Res Commun. 404:581-586). Just before study, cells were washed two times with Hanks' balanced salt solution and imaged at room temperature in the dark. Dual-emission ratio imaging used a 420DF20 excitation filter, a 450DRLP dichroic mirror, and two emission filters (475DF40 for cyan fluorescent protein and 535DF25 for yellow fluorescent protein) and was performed on a Zeiss Axiovert 200 M microscope with a MicroMAX BFT512 cooled charge-coupled device camera (Roper Scientific) controlled by MetaFluor 6.2 software (Universal Imaging). […]
To further clarify the nature of the altered β2-AR signalling, studies were performed in isolated myocytes infected with an adenovirus containing a plasma membrane-targeted adenosine 3′,5′-monophosphate (cAMP)-sensitive fluorescence resonance energy transfer (FRET) probe (ICUE3) based on the EPAC1 (exchange protein directly activated by cAMP 1) binding domain (FIG. 6A; DiPilato et al. (1999) J Biol Chem. 274:22048-22052). […]

isolated myocytes = assay: Myocyte sarcomere shortening and whole-cell calcium transients; format: cell-based, dog; parameters: effect of PTX on zinterol-stimulated shortening and Ca2+ transients: dose or concentration left out as unconfirmed
Procedure: Myocyte sarcomere shortening and whole-cell calcium transients were assessed with an inverted microscope (Ellipse TE2001, Nikon) equipped with an image-fluorescence system (MyoCam, IonOptix).
Adenovirus-mediated gene transfer of GFP, RGS2, or RGS3 was implemented by adding a minimal volume of the FBS-free MEM containing the gene-carrying adenovirus (100 multiplicities of infection). The full volume of FBS-free MEM was supplied after culture for another 1 to 2 hours. RGS expression and myocyte functional changes were assessed at 24 hours after transfection.

PKA = assay: SR-localized PKA activity FRET sensor (SR-AKAR3) in myocytes; format: cell-based, dog
Text: Adult myocytes were infected with an adenovirus expressing either the modified EPAC-based cAMP FRET sensor (ICUE3) (DiPilato et al. (1999) J Biol Chem. 274:22048-22052) or SR-localized PKA activity sensor SR-AKAR3 (Liu et al. (2011) Biochem Biophys Res Commun. 404:581-586). Just before study, cells were washed two times with Hanks' balanced salt solution and imaged at room temperature in the dark. Dual-emission ratio imaging used a 420DF20 excitation filter, a 450DRLP dichroic mirror, and two emission filters (475DF40 for cyan fluorescent protein and 535DF25 for yellow fluorescent protein) and was performed on a Zeiss Axiovert 200 M microscope with a MicroMAX BFT512 cooled charge-coupled device camera (Roper Scientific) controlled by MetaFluor 6.2 software (Universal Imaging). Fluorescent images (taken every 20 to 30 s) were background-corrected by subtracting autofluorescence intensities of untransfected cells (or background with no cells) from the emission intensities of cells expressing reporters.
To further clarify the nature of the altered β2-AR signalling, studies were performed in isolated myocytes infected with an adenovirus containing a plasma membrane-targeted adenosine 3′,5′-monophosphate (cAMP)-sensitive fluorescence resonance energy transfer (FRET) probe (ICUE3) based on the EPAC1 (exchange protein directly activated by cAMP 1) binding domain (FIG. 6A; DiPilato et al. (1999) J Biol Chem. 274:22048-22052). After 24 hours, cells were stimulated with either zinterol or fenoterol, each in the presence of a broad-spectrum phosphodiesterase (PDE) inhibitor, IBMX. […] Previous studies have proposed that reduced Gαi coupling to the β2-AR can modify the targeting of cAMP, resulting in enhanced protein kinase A (PKA) activation of sarcoplasmic reticulum (SR) calcium handling proteins and thus augmentation of the Ca^2+ and associated myocyte shortening (Kuschel et al. (1999) J. Biol. Chem. 274:22048-22052).

[1] = Pearce (2009); cited from earlier work

CC(Cc1ccc(O)cc1)NCC(O)c1cc(O)cc(O)c1 (stereo not shown) [fenoterol]
fenoterol-stimulated cAMP response (FRET ratio) (cAMP; all groups): all responded similarly; also recorded: similarly elevated response | fenoterol response compared with zinterol alone (isolated myocytes; HFdys and HFsyn): augmented over zinterol alone | PKA activation at the SR (PKA; cells from all models): PKA activation was detected | PKA activation at the SR (PKA; cells from all models, listed as Fenoterol): stimulated PKA at the SR in all models

CC(C)NCC(O)c1ccc(O)c(O)c1 (stereo not shown) [isoproterenol]
isoproterenol-stimulated shortening, relaxation, and peak calcium (isolated myocytes; AVA myocytes, compared with CRT): similar | isoproterenol-stimulated sarcomere shortening and relengthening, peak Ca2+ transient and decay rate (isolated myocytes; myocytes from HFdys or HFsyn): equally depressed; also recorded: markedly and similarly depressed | isoproterenol-stimulated sarcomere shortening and relengthening, peak Ca2+ transient and decay rate (isolated myocytes; myocytes from resynchronization models (CRT, V3A3)): back to near-control levels; also recorded: returned to control levels

CC(Cc1ccc(O)cc1)NCC(O)c1cc(O)cc(O)c1 (single isomer, unassigned) [fenoterol as a mixture of R,R-enantiomer and S,S-enantiomer, fenoterol]
mortality in asthma use [1]: worsened death

pertussis toxin [PTX]
effect of PTX on zinterol-stimulated functional or Ca2+ response (isolated myocytes; AVA myocytes): not further altered; also recorded: minimal augmentation | effect of PTX pretreatment on isoproterenol-stimulated sarcomere shortening (% SS) and whole-cell calcium transient (isolated myocytes; HFdys and HFsyn): greatly enhanced both behaviors | effect of PTX on zinterol-stimulated shortening and Ca2+ transients (isolated myocytes; cells from HFdys and HFsyn): greatly amplified the response; also recorded: marked augmentation | effect of PTX on zinterol-stimulated shortening and Ca2+ transients (isolated myocytes; cells from resynchronized hearts (CRT, V3A3)): little changed | effect of PTX on zinterol-stimulated shortening and Ca2+ transients (isolated myocytes; control myocytes): augmented zinterol-stimulated shortening and Ca^2+ transients slightly | effect of PTX pretreatment on isoproterenol-stimulated sarcomere shortening (% SS) and whole-cell calcium transient (isolated myocytes; resynchronized models): no impact

CC(C)(Cc1ccccc1)NCC(O)c1ccc(O)c(NS(C)(=O)=O)c1 (stereo not shown) [zinterol]
zinterol-stimulated cAMP increase (FRET ratio) (cAMP; resynchronization models vs other groups incl. control): exceeded that in the other groups; also recorded: greater response | response to zinterol (isolated myocytes; AVA cells): responded robustly | shortening and Ca2+ transient response to zinterol (isolated myocytes; cells from resynchronized hearts): enhanced responses | PKA activation at the SR (PKA; CRT cells): activation was detectable; also recorded: showed PKA activation | PKA stimulation detected at the SR (PKA; myocytes from HFdys or HFsyn): negligible PKA stimulation
